Source: US20170304450A1, “PARENTERAL COMPOSITIONS AND USES THEREOF” (CEVA SANTE ANIMALE, priority 2014, published 2017)
Read-outs that look alike come from different tables or passages of the source.

What was measured:
[1] = Tests of equivalence of bioavailability: plasma pharmacokinetic parameters after subcutaneous injection; assay type: in vivo, bovines; conditions: both sexes, bovine (cattle), sc
Description: 24 young male and female bovines aged 11 months and with an average weight of 220 kg are treated individually with 1 subcutaneous injection of 40 mg/kg of florfenicol (Nuflor 450®—Merck, 450 mg of florfenicol/mL). Blood samples are taken regularly during the 7 days following this injection. This is followed by a wash-out period of 20 days. The animals then receive a subcutaneous injection of 0.5 mg/kg meloxicam (Metacam®, Boehringer Ingelheim, 5 mg of meloxicam/mL). Blood samples are taken regularly during the 7 days following this injection. This is followed by a new wash-out period of 20 days. […] Blood samples are taken regularly during the 7 days following this injection. The blood samples obtained during this treatment campaign make it possible to evaluate the pharmacokinetic parameters (Cmax and AUC0-t) and a pharmacological parameter (useful life of the antibiotic) by conventional methods known by a person skilled in the art.

Mannheimia haemolytica [2] = assay: Useful life of the antibiotic (time plasma concentration is above MIC90); assay type: in vivo; conditions: time plasma florfenicol is above MIC90 1 μg/mL for Mannheimia haemolytica; bovines, subcutaneous
Description: (§1) Blood samples are taken regularly during the 7 days following this injection. This is followed by a wash-out period of 20 days. The animals then receive a subcutaneous injection of 0.5 mg/kg meloxicam (Metacam®, Boehringer Ingelheim, 5 mg of meloxicam/mL). Blood samples are taken regularly during the 7 days following this injection. This is followed by a new wash-out period of 20 days. […] Blood samples are taken regularly during the 7 days following this injection. […] The useful life of an antibiotic is the time (in hours) during which the plasma concentration of a given antibiotic is above its MIC90 for the 3 representative microbes Mannheimia haemolytica, Histophilus somni, Pasteurella multocida.

Histophilus somni [3] = assay: as above; assay type: in vivo; conditions: time plasma florfenicol is above MIC90 0.2 μg/mL for Histophilus somni; bovines, subcutaneous
Description: as §1

Pasteurella multocida [4] = assay: as above; assay type: in vivo; conditions: time plasma florfenicol is above MIC90 0.5 μg/mL for Pasteurella multocida; bovines, subcutaneous
Description: as §1

Pasteurella multocida [5] = conditions: Pasteurella multocida reference strain; cited from earlier work
Histophilus somni [6] = conditions: Histophilus somni reference strain; cited from earlier work
Mannheimia haemolytica [7] = conditions: Mannheimia haemolytica reference strain; cited from earlier work

| SMILES | AUC(0-t) ([1]; in vivo, 40 mg/kg) [µg·h/mL] | Cmax ([1]; in vivo, 40 mg/kg) [ng/mL] | Calculated antibiotic life (Mannheimia haemolytica [2]) [h] | Calculated antibiotic life (Histophilus somni [3]) [h] | Calculated antibiotic life (Pasteurella multocida [4]) [h] | reference MIC90 (Pasteurella multocida [5]) [µg/mL] | reference MIC90 (Histophilus somni [6]) [µg/mL] | reference MIC90 (Mannheimia haemolytica [7]) [µg/mL] | AUC(0-t) ([1]; plasma, 0.5 mg/kg, read-out: AUC0-t of meloxicam in plasma) [µg·h/mL] | Cmax ([1]; plasma, 0.5 mg/kg, read-out: Cmax of meloxicam in plasma) [ng/mL] |
| --- | --- | --- | --- | --- | --- | --- | --- | --- | --- | --- |
| CS(=O)(=O)c1ccc([C@@H](O)[C@@H](CF)NC(=O)C(Cl)Cl)cc1 [Florfenicol, florfenicol] | 196 ± 45 | 3500 ± 1040 | 66.44 ± 20.65 | 167.78 ± 0.13 | 132.03 ± 27.22 | 0.5 | 0.2 | 1 |  |  |
| Cc1cnc(NC(=O)C2=C(O)c3ccccc3S(=O)(=O)N2C)s1 [Meloxicam, meloxicam] |  |  |  |  |  |  |  |  | 40.6 ± 7.12 | 2240 ± 357 |
